Measurements reported in patent US11724992B2 (Novartis AG, priority 2017, dated 2023).

Test system: IL-1β production in PMA-differentiated THP-1 cells
Experiment: IL-1β production in PMA-differentiated THP-1 cells stimulated with gramicidin (hTHP-1 assay, 2% fetal bovine serum; Procedures 1-3)
Type: cell-based, human
Conditions: Homo sapiens, THP-1, hTHP-1 assay containing 2% fetal bovine serum; class symbols; read-out: hTHP-1 IC50 (Average IC50 of compounds in hTHP-1 assay)
In short: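 PMA-differentiated (20 ng/ml, 16-18 h) THP-1 cells in RPMI with 2% FBS, 50,000 cells/well, preincubated 1 h with compound (final 100–0.0017 μM, 0.37% DMSO), then stimulated with 5 μM gramicidin for 2 h. Supernatant IL-1β measured by HTRF.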

Row | IC50 [nM] | Structure (SMILES)
1 | 8 to 40 | Cc1oc(S(N)(=O)=NC(=O)Nc2c3c(cc4c2CCC4C)CCC3)cc1C(C)(C)O (single isomer, unassigned) [Example 305, (R,S) or (R,R)-4-(2-hydroxypropan-2-yl)-5-methyl-N′-((3-methyl-1,2,3,5,6,7-hexahydro-s-indacen-4-yl)carbamoyl)furan-2-sulfonimidamide; resolved from example 123]

Same assay, conditions: hTHP-1 assay containing 2% fetal bovine serum; class symbols; read-out: hTHP-1 IC50 (Average IC50 of compounds in hTHP-1 assay)

Row | Structure (SMILES) | IC50 [nM]
2 | CC(C)c1ccc(F)c(C(C)C)c1NC(=O)N=S(N)(=O)c1cnc(C(C)(C)O)s1 (single isomer, unassigned) [Example 298, (R) or (S)-N′-((3-fluoro-2,6-diisopropylphenyl)carbamoyl)-2-(2-hydroxypropan-2-yl)thiazole-5-sulfonimidamide] | 40 to 200
3 | CC(C)c1ccc(F)c(C(C)C)c1NC(=O)N=S(N)(=O)c1cnc(C(C)(C)O)s1 (single isomer, unassigned) [Example 299, (S) or (R)-N′-((3-fluoro-2,6-diisopropylphenyl)carbamoyl)-2-(2-hydroxypropan-2-yl)thiazole-5-sulfonimidamide] | 1000 to 5000
4 | CC(C)c1ccc(C#N)c(C(C)C)c1NC(=O)N=S(N)(=O)c1ccc(C(C)(C)O)s1 (single isomer, unassigned) [Example 300, (R) or (S)-N′-((3-cyano-2,6-diisopropylphenyl)carbamoyl)-5-(2-hydroxypropan-2-yl)thiophene-2-sulfonimidamide] | 200 to 1000
5 | Cc1oc(S(N)(=O)=NC(=O)Nc2c3c(cc4c2C(C)CC4)CCC3)cc1C(C)(C)O (single isomer, unassigned) [Example 302, (R,R) or (R,S) or (S,S) or (S,R)-4-(2-hydroxypropan-2-yl)-5-methyl-N′-((3-methyl-1,2,3,5,6,7-hexahydro-s-indacen-4-yl)carbamoyl)furan-2-sulfonimidamide resolved from example 127] | 200 to 1000
6 | Cc1oc(S(N)(=O)=NC(=O)Nc2c3c(cc4c2C(C)CC4)CCC3)cc1C(C)(C)O (single isomer, unassigned) [Example 303, (R,S) or (R,R) or (S,R) or (S,S)-4-(2-hydroxypropan-2-yl)-5-methyl-N′-((3-methyl-1,2,3,5,6,7-hexahydro-s-indacen-4-yl)carbamoyl)furan-2-sulfonimidamide resolved from example 127] | 8 to 40
7 | Cc1oc(S(N)(=O)=NC(=O)Nc2c3c(cc4c2CCC4C)CCC3)cc1C(C)(C)O (single isomer, unassigned) [Example 304, (R,R) or (R,S)-4-(2-hydroxypropan-2-yl)-5-methyl-N′-((3-methyl-1,2,3,5,6,7-hexahydro-s-indacen-4-yl)carbamoyl)furan-2-sulfonimidamide; resolved from example 123] | 40 to 200
8 | CC(C)(O)c1csc(S(N)(=O)=NC(=O)Nc2c3c(c(F)c4c2CCC4)CCC3)n1 (single isomer, unassigned) [Example 310, (R) or (S)-N′-((8-fluoro-1,2,3,5,6,7-hexahydro-s-indacen-4-yl)carbamoyl)-4-(2-hydroxypropan-2-yl)thiazole-2-sulfonimidamide] | 8 to 40
9 | CC(C)(O)c1csc(S(N)(=O)=NC(=O)Nc2c3c(c(F)c4c2CCC4)CCC3)n1 (single isomer, unassigned) [Example 311, (S) or (R)-N′-((8-fluoro-1,2,3,5,6,7-hexahydro-s-indacen-4-yl)carbamoyl)-4-(2-hydroxypropan-2-yl)thiazole-2-sulfonimidamide] | 200 to 1000
10 | CC(C)c1cc(C#N)c(F)c(C(C)C)c1NC(=O)N=S(N)(=O)c1cnc(C(C)(O)CO)s1 (single isomer, unassigned) [Example 316, Two isomers of (R,R) or (R,S) or (S,S) or (S,R)-N′-((4-cyano-3-fluoro-2,6-diisopropylphenyl)carbamoyl)-2-(1,2-dihydroxypropan-2-yl)thiazole-5-sulfonimidamide] | 200 to 1000
11 | CC(C)c1cc(C#N)c(F)c(C(C)C)c1NC(=O)N=S(N)(=O)c1cnc(C(C)(O)CO)s1 (single isomer, unassigned) [Example 317, (R,R) or (R,S) or (S,S) or (S,R)-N-((4-cyano-3-fluoro-2,6-diisopropylphenyl)carbamoyl)-2-(1,2-dihydroxypropan-2-yl)thiazole-5-sulfonimidamide] | 1000 to 5000
12 | CC(C)c1cc(C#N)c(F)c(C(C)C)c1NC(=O)N=S(N)(=O)c1cnc(C(C)(O)CO)s1 (single isomer, unassigned) [Example 318, (S,S) or (S,R) or (R,R) or (R,S)-N-((4-cyano-3-fluoro-2,6-diisopropylphenyl)carbamoyl)-2-(1,2-dihydroxypropan-2-yl)thiazole-5-sulfonimidamide] | 200 to 1000

Further lines, results first:

Row | IC50 [nM] | Structure (SMILES)
13 | 200 to 1000 | CC(C)(O)c1cnc(S(N)(=O)=NC(=O)Nc2c3c(cc4c2CCC4)CCC3)s1 (single isomer, unassigned) [Example 297, (S) or (R)-N′-((1,2,3,5,6,7-hexahydro-s-indacen-4-yl)carbamoyl)-5-(2-hydroxypropan-2-yl)thiazole-2-sulfonimidamide]
16 | 1000 to 5000 | CC(C)(O)c1cc(S(N)(=O)=NC(=O)Nc2c3c(cc4c2CCC4)CCC3)nn1-c1ccccc1 (single isomer, unassigned) [Example 308, (S) or (R)-N′-((1,2,3,5,6,7-hexahydro-s-indacen-4-yl)carbamoyl)-5-(2-hydroxypropan-2-yl)-1-phenyl-1H-pyrazole-3-sulfonimidamide]
17 | 40 to 200 | CC(C)(O)c1cc(S(N)(=O)=NC(=O)Nc2c3c(cc4c2CCC4)CCC3)nn1-c1ccccc1 (single isomer, unassigned) [Example 309, (R) or (S)-N′-((1,2,3,5,6,7-hexahydro-s-indacen-4-yl)carbamoyl)-5-(2-hydroxypropan-2-yl)-1-phenyl-1H-pyrazole-3-sulfonimidamide]
18 | 200 to 1000 | CNCc1ccc(S(N)(=O)=NC(=O)Nc2c3c(cc4c2CCC4)CCC3)cc1 (single isomer, unassigned) [Example 314, (S) or (R)-N′-((1,2,3,5,6,7-hexahydro-s-indacen-4-yl)carbamoyl)-4-((methylamino)methyl)benzenesulfonimidamide]
19 | 5000 to 30000 | CNCc1ccc(S(N)(=O)=NC(=O)Nc2c3c(cc4c2CCC4)CCC3)cc1 (single isomer, unassigned) [Example 315, (R) or (S)-N′-((1,2,3,5,6,7-hexahydro-s-indacen-4-yl)carbamoyl)-4-((methylamino)methyl)benzenesulfonimidamide]
20 | 1000 to 5000 | CC(C)(O)c1ccc(S(N)(=O)=NC(=O)Nc2c3c(cc4c2CCC4)CCC3)cn1 (single isomer, unassigned) [Example 319, (S) or (R)-N′-((1,2,3,5,6,7-hexahydro-s-indacen-4-yl)carbamoyl)-6-(2-hydroxypropan-2-yl)pyridine-3-sulfonimidamide]
21 | 40 to 200 | CC(C)(O)c1ccc(S(N)(=O)=NC(=O)Nc2c3c(cc4c2CCC4)CCC3)cn1 (single isomer, unassigned) [Example 320, (R) or (S)-N′-((1,2,3,5,6,7-hexahydro-s-indacen-4-yl)carbamoyl)-6-(2-hydroxypropan-2-yl)pyridine-3-sulfonimidamide]
22 | 1000 to 5000 | CC1CCc2c1cc1c(c2NC(=O)N=S(N)(=O)c2cnc(C(C)(C)O)s2)CCC1 (single isomer, unassigned) [Example 321, (S,S) or (S,R)-2-(2-hydroxypropan-2-yl)-N′-((1-methyl-1,2,3,5,6,7-hexahydro-s-indacen-4-yl)carbamoyl)thiazole-5-sulfonimidamide (from Example 291)]
23 | 200 to 1000 | CC1CCc2c1cc1c(c2NC(=O)N=S(N)(=O)c2cnc(C(C)(C)O)s2)CCC1 (single isomer, unassigned) [Example 322, (S,R) or (S,S)-2-(2-hydroxypropan-2-yl)-N′-((1-methyl-1,2,3,5,6,7-hexahydro-s-indacen-4-yl)carbamoyl)thiazole-5-sulfonimidamide (from Example 291)]
24 | 40 to 200 | CC1CCc2c1cc1c(c2NC(=O)N=S(N)(=O)c2cnc(C(C)(C)O)s2)CCC1 (single isomer, unassigned) [Example 323, (R,R) or (R,S)-2-(2-hydroxypropan-2-yl)-N′-((1-methyl-1,2,3,5,6,7-hexahydro-s-indacen-4-yl)carbamoyl)thiazole-5-sulfonimidamide (from Example 291)]
25 | 8 to 40 | CC1CCc2c1cc1c(c2NC(=O)N=S(N)(=O)c2cnc(C(C)(C)O)s2)CCC1 (single isomer, unassigned) [Example 324, (R,S) or (R,R)-2-(2-hydroxypropan-2-yl)-N′-((1-methyl-1,2,3,5,6,7-hexahydro-s-indacen-4-yl)carbamoyl)thiazole-5-sulfonimidamide (from Example 291)]
26 | 5000 to 30000 | CC1CCc2cc3c(c(NC(=O)N=S(N)(=O)c4cnc(C(C)(C)O)s4)c21)CCC3 (single isomer, unassigned) [Example 331, (S,S) or (S,R)-2-(2-hydroxypropan-2-yl)-N′-((3-methyl-1,2,3,5,6,7-hexahydro-s-indacen-4-yl)carbamoyl)thiazole-5-sulfonimidamide]
